“Also recorded” adds a separate entry of the source.
Assays:
[1] = tested on: other kinases including mTOR and AKT; test: Western blot of phospho-kinases in T cells cultured with commercially available ITK inhibitors; format: cell-based; conditions: mouse T cells (10n, CTA056) and human PBMC T cells (10n); pAKT, pmTOR
Description: Novel peptide inhibitor SLP76pTYR specifically targets ITK signaling and enhances Treg cell development. Since T cells from SLP76Y145FKI mice can separate GVHD from GVL, we sought to determine whether disruption of ITK signaling with pharmacological agents would have a similar effect. […] Thus, we sought to design a novel inhibitor that would explicitly target the SLP76-ITK interaction and signaling by preventing the SH2 domain of ITK from docking onto SLP76 at tyrosine 145. Since evolution usually selects residues at specific protein: protein interfaces for certain properties (Pletneva et al., 2006), we analyzed the physico-chemical and structural properties of the interface of the SH2 domain and SLP76-pY145 in our quest to generate a potent inhibitor of the ITK-SH2 domain: SLP76-pY145 interaction (FIG. 17A,B). […]
(FIG. 27A) WT mouse T cells were cultured with either 10n or vehicle, then lysed post-incubation, and lysates were western blotted for pITK (size 50-75 kDa), pPLCγ1 (size ~155 kDa), PERK (size ~42 kDa), pAKT (size ~60 kDa), and pmTOR (size 240 kDa). (FIG. 27B) Western blots from three experiments were quantitated and normalized to actin. […] (FIG. 27D) Western blots from three experiments were quantitated and normalized to actin. […] (FIG. 27F) Western blots from three experiments were quantitated and normalized to β-Actin. […]

S1P1 = S1P1 (Mus musculus, UniProt O08530); conditions: retention of T cells in secondary lymphoid organs; cited from earlier work
Sequence of S1P1 (O08530 whole entry): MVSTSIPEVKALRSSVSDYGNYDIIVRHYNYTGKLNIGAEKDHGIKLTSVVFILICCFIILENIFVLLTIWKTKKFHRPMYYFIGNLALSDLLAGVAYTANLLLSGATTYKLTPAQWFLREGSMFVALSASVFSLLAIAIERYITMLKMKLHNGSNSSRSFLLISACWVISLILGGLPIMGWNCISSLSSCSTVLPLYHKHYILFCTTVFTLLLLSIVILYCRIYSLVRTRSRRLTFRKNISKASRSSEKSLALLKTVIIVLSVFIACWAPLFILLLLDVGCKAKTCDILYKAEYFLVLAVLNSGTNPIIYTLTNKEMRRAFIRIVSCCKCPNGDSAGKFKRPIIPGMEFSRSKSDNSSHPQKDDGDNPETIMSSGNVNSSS

SMILES | specificity for ITK / inhibition of other kinases [1] | effect on GVHD and GVL (S1P1)
CCc1ccc2nc(Nc3cc(Cc4ccccc4)nc(NC4CCC(O)CC4)n3)sc2c1 (stereo not drawn) [GSK2250665A] | also inhibit several other kinases including mTOR and AKT | –
O=c1[nH]c2cc3nc(-c4ccc(-c5ccncc5)cc4)n(CCCN4CCCCC4)c3cc2nc1Cc1ccccc1 [CTA056] | also inhibit several other kinases including mTOR and AKT; also recorded: not specific for ITK | –
CCCCCCCCc1ccc(CCC(N)(CO)CO)cc1 [FTY720] | – | ameliorates GVHD while maintaining GVL effects
